Measurements reported in PubChem BioAssay (NCI).
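GI50 is the concentration that inhibits growth by half. At the TGI there is no net growth.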

Assays:
Assay in all cases: NCI tumour cell line growth inhibition, 384-well format; in the data active = GI50 below about 0.43 µM; inactive = the rest
HCT-15 colon = tested on: HCT-15 colon
NCI/ADR-RES ovarian = tested on: NCI/ADR-RES ovarian
UACC-62 melanoma = tested on: UACC-62 melanoma
HL-60(TB) leukemia = tested on: HL-60(TB) leukemia
CCRF-CEM leukemia = tested on: CCRF-CEM leukemia
EKVX NSCLC = tested on: EKVX NSCLC
OVCAR-5 ovarian = tested on: OVCAR-5 ovarian
SNB-19 CNS = tested on: SNB-19 CNS
SN12C renal = tested on: SN12C renal
HOP-62 NSCLC = tested on: HOP-62 NSCLC
RXF 393 renal = tested on: RXF 393 renal
SNB-75 CNS = tested on: SNB-75 CNS
MALME-3M melanoma = tested on: MALME-3M melanoma
SF-539 CNS = tested on: SF-539 CNS
HCT-116 colon = tested on: HCT-116 colon
A549 NSCLC = tested on: A549 NSCLC
786-0 renal = tested on: 786-0 renal
HS 578T breast = tested on: HS 578T breast
SK-OV-3 ovarian = tested on: SK-OV-3 ovarian
MDA-MB-468 breast = tested on: MDA-MB-468 breast
TK-10 renal = tested on: TK-10 renal
LOX IMVI melanoma = tested on: LOX IMVI melanoma
HOP-92 NSCLC = tested on: HOP-92 NSCLC
SF-295 CNS = tested on: SF-295 CNS
M14 melanoma = tested on: M14 melanoma
UO-31 renal = tested on: UO-31 renal
NCI-H460 NSCLC = tested on: NCI-H460 NSCLC
IGROV1 ovarian = tested on: IGROV1 ovarian
U251 glioblastoma = tested on: U251 glioblastoma
SF-268 CNS = tested on: SF-268 CNS
MDA-MB-435 melanoma = tested on: MDA-MB-435 melanoma
A498 renal = tested on: A498 renal
SR leukemia = tested on: SR leukemia
BT-549 breast = tested on: BT-549 breast
OVCAR-4 ovarian = tested on: OVCAR-4 ovarian
SK-MEL-28 melanoma = tested on: SK-MEL-28 melanoma
OVCAR-3 ovarian = tested on: OVCAR-3 ovarian
NCI-H522 lung = tested on: NCI-H522 lung
KM12 colon = tested on: KM12 colon
SK-MEL-5 melanoma = tested on: SK-MEL-5 melanoma
NCI-H226 lung = tested on: NCI-H226 lung
ACHN renal = tested on: ACHN renal
NCI-H23 lung = tested on: NCI-H23 lung
T-47D breast = tested on: T-47D breast
OVCAR-8 ovarian = tested on: OVCAR-8 ovarian
PC-3 prostate = tested on: PC-3 prostate
RPMI-8226 leukemia = tested on: RPMI-8226 leukemia
NCI-H322M lung = tested on: NCI-H322M lung
SW-620 colon = tested on: SW-620 colon
MCF7 breast = tested on: MCF7 breast
MOLT-4 leukemia = tested on: MOLT-4 leukemia
CAKI-1 renal = tested on: CAKI-1 renal
DU-145 prostate = tested on: DU-145 prostate
UACC-257 melanoma = tested on: UACC-257 melanoma
MDA-MB-231 breast = tested on: MDA-MB-231 breast
HCC-2998 colon = tested on: HCC-2998 colon
COLO 205 colon = tested on: COLO 205 colon
HT29 colon = tested on: HT29 colon
K-562 leukemia = tested on: K-562 leukemia

COc1ccc(CN2C3CC2CN(c2ccc(-c4cc(OCC(C)(C)O)cn5ncc(C#N)c45)cn2)C3)cn1
> 45.8 µM: TGI (SN12C renal)
27.8 µM: TGI (NCI-H23 lung)
7.68 µM: TGI (BT-549 breast)
9.56 µM: TGI (SF-295 CNS)
9.04 µM: TGI (MDA-MB-468 breast)
6.86 µM: TGI (SF-539 CNS)
7.91 µM: TGI (RXF 393 renal)
> 60 µM: TGI (IGROV1 ovarian)
> 50.1 µM: TGI (HS 578T breast)
inactive: GI50 (HCT-15 colon) 9.55 µM | GI50 (NCI/ADR-RES ovarian) 21.4 µM | GI50 (UACC-62 melanoma) 98.7 µM | GI50 (HL-60(TB) leukemia) 4.36 µM | GI50 (CCRF-CEM leukemia) 1.99 µM | GI50 (EKVX NSCLC) > 31.6 µM | GI50 (OVCAR-5 ovarian) > 100 µM | GI50 (SNB-19 CNS) > 100 µM | GI50 (SN12C renal) 2.44 µM | GI50 (HOP-62 NSCLC) 8.51 µM | GI50 (RXF 393 renal) 4.29 µM | GI50 (SNB-75 CNS) 1.85 µM | GI50 (MALME-3M melanoma) > 28.9 µM | GI50 (SF-539 CNS) 2.08 µM | GI50 (HCT-116 colon) 24.2 µM | GI50 (A549 NSCLC) 7.53 µM | GI50 ([…]-0 renal) 57.3 µM | GI50 (HS 578T breast) 6.92 µM | GI50 (SK-OV-3 ovarian) 24.3 µM | GI50 (MDA-MB-468 breast) 5.75 µM | GI50 (TK-10 renal) > 31.6 µM | GI50 (LOX IMVI melanoma) 50.8 µM | GI50 (HOP-92 NSCLC) 2.92 µM | GI50 (SF-295 CNS) 5.36 µM | GI50 (M14 melanoma) > 82 µM | GI50 (UO-31 renal) > 100 µM | GI50 (NCI-H460 NSCLC) 5.11 µM | GI50 (IGROV1 ovarian) 7.33 µM | GI50 (U251 glioblastoma) > 31.6 µM | GI50 (SF-268 CNS) > 26.8 µM | GI50 (MDA-MB-435 melanoma) > 100 µM | GI50 (A498 renal) > 38.3 µM | GI50 (SR leukemia) 1.64 µM | GI50 (BT-549 breast) 1.87 µM | GI50 (OVCAR-4 ovarian) 5.26 µM | GI50 (SK-MEL-28 melanoma) > 100 µM | GI50 (OVCAR-3 ovarian) > 28.5 µM | GI50 (NCI-H522 lung) 7.9 µM | GI50 (KM12 colon) > 100 µM | GI50 (SK-MEL-5 melanoma) > 31.6 µM | GI50 (NCI-H226 lung) 2.94 µM | GI50 (ACHN renal) 25.4 µM | GI50 (NCI-H23 lung) 8.4 µM | GI50 (T-47D breast) > 31.6 µM | GI50 (OVCAR-8 ovarian) 22.3 µM | GI50 (PC-3 prostate) > 100 µM | GI50 (RPMI-8226 leukemia) > 28.8 µM | GI50 (NCI-H322M lung) > 74 µM | GI50 (SW-620 colon) 4.99 µM | GI50 (MCF7 breast) > 31.6 µM | GI50 (MOLT-4 leukemia) 1.58 µM | GI50 (CAKI-1 renal) 5.02 µM | GI50 (DU-145 prostate) 28.3 µM | GI50 (UACC-257 melanoma) > 31.6 µM
11.5 µM: TGI (HL-60(TB) leukemia)
15.4 µM: TGI (NCI-H226 lung)
3.76 µM: TGI (CCRF-CEM leukemia)
> 100 µM: TGI (NCI/ADR-RES ovarian) | TGI (UACC-62 melanoma) | TGI (OVCAR-5 ovarian) | TGI (SNB-19 CNS) | TGI (MALME-3M melanoma) | TGI (HCT-116 colon) | TGI (786-0 renal) | TGI (LOX IMVI melanoma) | TGI (M14 melanoma) | TGI (UO-31 renal) | TGI (NCI-H460 NSCLC) | TGI (SF-268 CNS) | TGI (MDA-MB-435 melanoma) | TGI (A498 renal) | TGI (OVCAR-4 ovarian) | TGI (SK-MEL-28 melanoma) | TGI (OVCAR-3 ovarian) | TGI (KM12 colon) | TGI (ACHN renal) | TGI (PC-3 prostate) | TGI (NCI-H322M lung) | TGI (SW-620 colon) | TGI (CAKI-1 renal) | TGI (DU-145 prostate)
38.1 µM: TGI (HOP-92 NSCLC)
3.13 µM: TGI (MOLT-4 leukemia)
7.29 µM: TGI (SNB-75 CNS)
3.24 µM: TGI (SR leukemia)
> 31.6 µM: TGI (HCT-15 colon) | TGI (EKVX NSCLC) | TGI (HOP-62 NSCLC) | TGI (A549 NSCLC) | TGI (SK-OV-3 ovarian) | TGI (TK-10 renal) | TGI (U251 glioblastoma) | TGI (NCI-H522 lung) | TGI (SK-MEL-5 melanoma) | TGI (T-47D breast) | TGI (OVCAR-8 ovarian) | TGI (RPMI-8226 leukemia) | TGI (MCF7 breast) | TGI (UACC-257 melanoma)

Cn1cc(C2=C(c3cn(C4CCN(Cc5ccccn5)CC4)c4ccccc34)C(=O)NC2=O)c2ccccc21
3.36 µM: TGI (OVCAR-3 ovarian)
95.5 µM: TGI (SK-MEL-5 melanoma)
0.593 µM: TGI (MDA-MB-468 breast)
1.58 µM: TGI (K-562 leukemia)
inactive: GI50 (HCT-15 colon) 0.623 µM | GI50 (NCI/ADR-RES ovarian) 3.33 µM | GI50 (HL-60(TB) leukemia) 0.713 µM | GI50 (EKVX NSCLC) 0.917 µM | GI50 (OVCAR-5 ovarian) > 100 µM | GI50 (SNB-19 CNS) 2.61 µM | GI50 (MDA-MB-231 breast) 4.21 µM | GI50 (SN12C renal) 1.26 µM | GI50 (HOP-62 NSCLC) 3.22 µM | GI50 (RXF 393 renal) 2.06 µM | GI50 (SNB-75 CNS) 1.41 µM | GI50 (MALME-3M melanoma) 2.84 µM | GI50 (SF-539 CNS) 1.2 µM | GI50 (HCT-116 colon) 0.645 µM | GI50 (A549 NSCLC) 5.18 µM | GI50 (HCC-2998 colon) 1.5 µM | GI50 ([…]-0 renal) 3.31 µM | GI50 (HS 578T breast) 2.22 µM | GI50 (SK-OV-3 ovarian) 2.52 µM | GI50 (TK-10 renal) 2.7 µM | GI50 (LOX IMVI melanoma) 3.1 µM | GI50 (COLO 205 colon) 4.14 µM | GI50 (HOP-92 NSCLC) 4.24 µM | GI50 (SF-295 CNS) 4.48 µM | GI50 (HT29 colon) 3.29 µM | GI50 (M14 melanoma) 2.94 µM | GI50 (UO-31 renal) 1.11 µM | GI50 (IGROV1 ovarian) 3.57 µM | GI50 (SF-268 CNS) 3 µM | GI50 (A498 renal) 0.718 µM | GI50 (K-562 leukemia) 0.454 µM | GI50 (BT-549 breast) 1.6 µM | GI50 (OVCAR-4 ovarian) 3.33 µM | GI50 (SK-MEL-28 melanoma) 2.89 µM | GI50 (OVCAR-3 ovarian) 0.5 µM | GI50 (KM12 colon) 3.93 µM | GI50 (NCI-H226 lung) 3.31 µM | GI50 (ACHN renal) 8.73 µM | GI50 (NCI-H23 lung) 5.28 µM | GI50 (OVCAR-8 ovarian) 6.7 µM | GI50 (PC-3 prostate) 2.98 µM | GI50 (NCI-H322M lung) 5.75 µM | GI50 (MCF7 breast) 2.98 µM | GI50 (MOLT-4 leukemia) 1.9 µM | GI50 (CAKI-1 renal) 3.99 µM | GI50 (DU-145 prostate) 2.65 µM | GI50 (UACC-257 melanoma) > 100 µM
7.84 µM: TGI (SF-268 CNS)
5.08 µM: TGI (HS 578T breast)
84 µM: TGI (NCI-H460 NSCLC)
39.4 µM: TGI (MDA-MB-435 melanoma)
2.54 µM: TGI (HL-60(TB) leukemia)
7.12 µM: TGI (SNB-75 CNS)
> 100 µM: TGI (HCT-15 colon) | TGI (NCI/ADR-RES ovarian) | TGI (EKVX NSCLC) | TGI (OVCAR-5 ovarian) | TGI (SNB-19 CNS) | TGI (MDA-MB-231 breast) | TGI (SN12C renal) | TGI (HOP-62 NSCLC) | TGI (SF-539 CNS) | TGI (HCT-116 colon) | TGI (A549 NSCLC) | TGI (786-0 renal) | TGI (SK-OV-3 ovarian) | TGI (TK-10 renal) | TGI (LOX IMVI melanoma) | TGI (COLO 205 colon) | TGI (HOP-92 NSCLC) | TGI (SF-295 CNS) | TGI (HT29 colon) | TGI (UO-31 renal) | TGI (IGROV1 ovarian) | TGI (BT-549 breast) | TGI (OVCAR-4 ovarian) | TGI (SK-MEL-28 melanoma) | TGI (KM12 colon) | TGI (NCI-H226 lung) | TGI (ACHN renal) | TGI (NCI-H23 lung) | TGI (OVCAR-8 ovarian) | TGI (PC-3 prostate) | TGI (NCI-H322M lung) | TGI (MCF7 breast) | TGI (CAKI-1 renal) | TGI (DU-145 prostate) | TGI (UACC-257 melanoma)
active: GI50 (CCRF-CEM leukemia) 0.403 µM | GI50 (MDA-MB-468 breast) 0.274 µM | GI50 (NCI-H460 NSCLC) 0.344 µM | GI50 (MDA-MB-435 melanoma) 0.421 µM | GI50 (SK-MEL-5 melanoma) 0.372 µM
1.24 µM: TGI (CCRF-CEM leukemia)
3.35 µM: TGI (MOLT-4 leukemia)
9.21 µM: TGI (M14 melanoma)
7.71 µM: TGI (MALME-3M melanoma) | TGI (A498 renal)
4.85 µM: TGI (RXF 393 renal)
12.4 µM: TGI (HCC-2998 colon)
